Measured values from patent US20090156569A1, “ORAL CONTRACEPTIVE SPRAY” (N.V. Organon, priority 2007, published 2009).
Values after ≈ are worked out from the molar mass of the structure shown. Read-outs that look alike come from different tables or passages of the source.

Legend:
[1] = Solubility of the active ingredients in liquid solutions (Liquids 1-5); assay type: physicochemical; conditions: for solubility: aqueous with cosolvent or surfactant or cyclodextrin
Procedure: Solutions were prepared essentially according to the procedure as described in Example 1. The solubility of each one of the active ingredients desogestrel, 3-β-hydroxydesogestrel, 3-keto desogestrel and ethinyl estradiol in these solutions was tested.

[2] = design: species or system human; conditions: in vivo
Procedure: Sixteen healthy female subjects were treated with 0.1 ml of the oral spray as described in Example 1 or with Marvelon® tablets (150 μg desogestrel, 30 μg ethinyl estradiol) in a cross over design. The spray was administered sublingually. Marvelon® was ingested. Serum concentration versus time profiles were obtained for etonogestrel and plasma concentration versus time profiles were obtained for ethinyl estradiol. FIGS. 2, 3, 4 and 5 show the average values of the serum/plasma concentrations versus time profiles.
This leads to the conclusion that a lower dose of either etonogestrel, or ethinyl estradiol, or both is possible for oral mucosal administration.

[3] = Cross-over pharmacokinetic study: sublingual oral spray (75 μg etonogestrel) versus ingested Cerazette tablet; assay type: in vivo, human; conditions: oral mucosal administration of etonogestrel; FIGS. 6 and 7
Procedure: Sixteen healthy female subjects were treated with 0.1 ml of oral spray comprising the liquid as depicted in table 6 to administer 75 μg etonogestrel, or with Cerazette® tablets (75 μg desogestrel) in a cross over design. The spray has been administered sublingually. Cerazette® has been ingested. Serum concentration versus time profiles were obtained for etonogestrel.
This leads to the conclusion that a lower dose of either etonogestrel is possible for oral mucosal administration to achieve a similar pharmacological effect.

[4] = exposure of etonogestrel after oral ingestion as its prodrug desogestrel; cited from earlier work
[5] = Liquid 1: water 25, ethanol 20, glycerol 25, propylene glycol 25, polysorbate 80 5 % v/v, read-out: Solubility in Liquid 1
[6] = Liquid 2: water 25, ethanol 25, glycerol 20, propylene glycol 25, polysorbate 80 5 % v/v, read-out: Solubility in Liquid 2
[7] = Liquid 3: water 25, ethanol 30, glycerol 15, propylene glycol 25, polysorbate 80 5 % v/v, read-out: Solubility in Liquid 3
[8] = Liquid 4: water 25, ethanol 25, glycerol 25, propylene glycol 25, polysorbate 80 0 % v/v, read-out: Solubility in Liquid 4
[9] = Liquid 5: water 30, ethanol 30, glycerol 25, propylene glycol 15, polysorbate 80 0 % v/v, read-out: Solubility in Liquid 5

C#C[C@]1(O)CC[C@H]2[C@@H]3CCC4=C[C@@H](O)CC[C@@H]4[C@H]3C(=C)C[C@@]21CC [3-β-Hydroxy-desogestrel]
Solubility in Liquid 1 [1]: ≧8.8 mg/mL
Solubility in Liquid 2 [1]: ≧7.0 mg/mL
Solubility in Liquid 3 [1]: ≧6.1 mg/mL
Solubility in Liquid 4 [1]: ≧6.9 mg/mL
Solubility in Liquid 5 [1]: ≧8.7 mg/mL

C#C[C@]1(O)CC[C@H]2[C@@H]3CCC4=CC(=O)CC[C@@H]4[C@H]3C(=C)C[C@@]21CC [Etonogestrel, 13-ethyl-11methylene-17β-hydroxy-18,19-dinor-17α-pregnen-3-one]
levels of etonogestrel (in serum) compared to oral ingestion of equivalent amounts using a tablet [2]: much higher levels
solubility [1, 5]: 5500 µg/mL (≈ 17 mM)
solubility [1, 6]: 5800 µg/mL (≈ 17.9 mM)
solubility [1, 7]: 7300 µg/mL (≈ 22.5 mM)
solubility [1, 8]: 4200 µg/mL (≈ 12.9 mM)
solubility [1, 9]: 3400 µg/mL (≈ 10.5 mM)
levels of etonogestrel (in serum) compared to oral ingestion of an equivalent amount of desogestrel using a tablet [3]: much higher levels
oral bioavailability [4]: about 80%

C#C[C@]1(O)CC[C@H]2[C@@H]3CCC4=CCCC[C@@H]4[C@H]3C(=C)C[C@@]21CC [Desogestrel]
solubility [1, 5]: 11300 µg/mL (≈ 36.4 mM)
solubility [1, 6]: 12400 µg/mL (≈ 39.9 mM)
solubility [1, 7]: 13400 µg/mL (≈ 43.2 mM)
solubility [1, 8]: 2100 µg/mL (≈ 6.76 mM)
solubility [1, 9]: 1500 µg/mL (≈ 4.83 mM)

C#C[C@]1(O)CC[C@H]2[C@@H]3CCc4cc(O)ccc4[C@H]3CC[C@@]21C [Ethinyl Estradiol]
levels of ethinyl estradiol (in plasma) compared to oral ingestion of equivalent amounts using a tablet [2]: much higher levels
solubility [1, 5]: ≥ 10900 µg/mL
solubility [1, 6]: ≥ 10800 µg/mL
solubility [1, 7]: ≥ 14100 µg/mL
solubility [1, 8]: 11200 µg/mL (≈ 37.8 mM)
solubility [1, 9]: 12400 µg/mL (≈ 41.8 mM)
